According to patent publication US6875750B1, “Aziridine compounds and methods of making and using them” (Max-Planck-Gesellschaft zur Foerderung der Wissenschaften …, priority 1998, dated 2005):

Experiments:
[1] = molecular target: T1, N6-adenine DNA methyltransferase M•TaqI (Thermus aquaticus, UniProt P14385); assay: Enzyme reaction: M•TaqI-catalyzed coupling of cofactor with duplex oligodeoxynucleotide 3•4, followed by anion exchange chromatography; type: biochemical; conditions: duplex 3•4 10 μM, M•TaqI 10 μM, pH 6.0, 37°C
T1 construct: made in house
T1 sequence (P14385 whole entry): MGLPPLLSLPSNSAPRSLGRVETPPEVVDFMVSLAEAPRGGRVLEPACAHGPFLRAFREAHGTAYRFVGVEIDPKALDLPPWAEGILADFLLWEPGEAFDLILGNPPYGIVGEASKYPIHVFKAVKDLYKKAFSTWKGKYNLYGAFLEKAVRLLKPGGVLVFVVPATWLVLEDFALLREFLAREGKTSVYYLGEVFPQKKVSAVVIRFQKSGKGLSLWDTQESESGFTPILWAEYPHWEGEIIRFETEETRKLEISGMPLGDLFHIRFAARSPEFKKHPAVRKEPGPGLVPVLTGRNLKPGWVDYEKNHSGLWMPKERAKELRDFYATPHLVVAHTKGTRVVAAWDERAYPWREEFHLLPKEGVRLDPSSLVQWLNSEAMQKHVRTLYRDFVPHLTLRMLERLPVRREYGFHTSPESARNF
Method: The DNA methyltransferase M•TaqI free of cofactor was prepared as described before (B. Holz, S. Klimasauskas, S. Serva, E. Weinhold, Nucleic Acids Res. 1998, 26, 1076-1083). The enzyme-catalyzed reaction was carried out in a mixture (500 μl) of M•TaqI (5 nmol, 10 μM), duplex oligodeoxynucleotide 3.4 (5 nmol, 10 μM), compound 2 (500 nmol, 1 mM), Tris acetate (20 mM, pH 6,0), potassium acetate (50 mM), magnesium acetate (10 mM) and Triton X-100 (0.01%) at 37°C. The progress of the reaction was monitored by anion exchange chromatography. Aliquots (50 μl) of the reaction mixture were withdrawn after different incubation times, mixed with an urea solution (100 μl, 6 M) and injected onto an anion exchange column (Poros 10 HQ, 10 μm, 4.6×100 mm, PerSeptive Biosystems, Germany). Compounds were eluted with aqueous potassium chloride (0.5 M for 5 min, followed by a linear gradient to 1 M in 30 min, 4 ml/min) in Tris chloride buffer (10 mM, pH 7.6).
The enzyme-catalyzed reaction was carried out in a mixture (500 μl) of cofactor free M-Taql (5 nmol, 10 μM), duplex oligodeoxynucleotide 3•4 (5 nmol, 10 μM), compound 9 (10 nmol, 20 μM), Tris acetate (20 mM, pH 6.0), potassium acetate (50 mM), magnesium acetate (10 mM) and Triton X-100 (0,01%) at 37° C. The progress of the reaction was monitored by anion exchange chromatography (Poros 10 HQ, 10 μm, 4,6×10 mm, PerSeptive Biosystems, Germany). Compounds were eluted with aqueous potassium chloride (0.2 M for 5 min, followed by a linear gradient to 0.5 M in 5 min and to 1 M in 30 min) in Tris chloride buffer (10 mM, pH 7.0). Complete conversion to a new product (containing DNA and protein) with a retention time of 7.9 min was observed after 15 h. […] Then, a solution (4 μl) of proteinase K (31 mg/ml), Tris chloride (50 mM, pH 8.0) and calcium chloride (1 mM) was added, and the reaction mixture was incubated at 37° C. for 1 h. The proteolytic fragmentation was monitored by anion exchange chromatography as described above. […]

[2] = molecular target: T2, C5-cytosine DNA methyltransferase M•HhaI (Haemophilus parahaemolyticus, UniProt P05102); assay: Enzyme reaction: M•HhaI-catalyzed coupling of cofactor with duplex oligodeoxynucleotide 6•7, followed by anion exchange chromatography; type: biochemical, Haemophilus haemolyticus; conditions: duplex 6•7 10 μM, M•HhaI 10 μM, compound 2 1 mM, pH 7.4, 25°C
T2 construct: made in house
T2 sequence (P05102 1-327): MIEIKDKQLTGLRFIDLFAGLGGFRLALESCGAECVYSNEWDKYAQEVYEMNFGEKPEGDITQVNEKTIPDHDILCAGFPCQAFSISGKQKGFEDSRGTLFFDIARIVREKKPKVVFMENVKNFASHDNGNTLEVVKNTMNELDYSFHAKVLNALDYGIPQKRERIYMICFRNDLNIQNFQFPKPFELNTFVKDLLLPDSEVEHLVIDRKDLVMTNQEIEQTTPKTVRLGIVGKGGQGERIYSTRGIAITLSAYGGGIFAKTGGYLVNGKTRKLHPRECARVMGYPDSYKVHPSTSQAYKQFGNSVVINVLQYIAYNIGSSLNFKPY
Method: The DNA methyltransferase M•HhaI free of cofactor was prepared as described before (B. Holz, S. Klimasauskas, S. Serva, E. Weinhold, Nucleic Acids Res. 1998, 26, 1076-1083). The enzyme-catalyzed reaction was carried out in a mixture (500 μl) of M•HhaI (5 nmol, 10 μM), duplex oligodeoxynucleotide 6•7 (5 nmol, 10 μM), compound 2 (500 nmol, 1 mM), Tris chloride (10 mM, pH 7.4), sodium chloride (50 mM), EDTA (0,5 mM) and Triton X-100 (0.01%) at 25° C. The progress of the reaction was monitored by anion exchange chromatography. Aliquots (50 μl) of the reaction mixture were withdrawn after different incubation times, and injected onto an anion exchange column (Poros 10 HQ, 10 μm, 4.6×100 mm, PerSeptive Biosystems, Germany). Compounds were eluted with aqueous potassium chloride (0 M for 5 min, followed by a linear gradient to 0.5 M in 5 min and to 1 M in 30 min, 4 ml/min) in Tris chloride buffer (20 mM, pH. 7.6).

[3] = molecular target: T1, N6-adenine DNA methyltransferase M•TaqI; assay: Fluorescent labeling of plasmid DNA (pUC19) using M•TaqI; type: biochemical; conditions: M•TaqI 133 nM, pUC19 28 nM, compound 9 20 μM
Method: The enzyme-catalyzed labeling reaction was carried out in a mixture (500 μl) of cofactor free M•TaqI (133 nM), pUC19 DNA (28 nM, 4 recognition sites for M•TaqI), compound 9 (20 μM), Tris acetate (20 mM, pH 6,0), potassium acetate (50 mM), magnesium, acetate (10 mM) and Triton X-100 (0,01%) at 65° C. The progress of the reaction was monitored by anion exchange chromatography (NUCLEOGEN DEAE 4000-7, 7 μm, 125×6,2 mm, Machery-Nagel, Düren, Germany). Compounds were eluted with aqueous potassium chloride (0.2 M for 5 min followed by a linear gradient to 1 M in 30 min) in Tris chloride buffer (10 mM, pH 7.0) containing acetonitrile (20%). The chromatograms of the anion exchange chromatography after different incubation times are shown in FIG. 6 (A: UV detection at 260 nm; B: fluorescence detection). The delay between the observed UV absorption and the fluorescence is due to a spatial separation of the UV detector and the fluorescence detector. The labeling reaction yielding fluorescent pUC19 was completed after 8 h.

[4] = molecular target: T2, C5-cytosine DNA methyltransferase M•HhaI; assay: Fluorescent labeling of plasmid DNA (pUC19) using M•HhaI; type: biochemical, Haemophilus haemolyticus; conditions: M•HhaI 730 nM, pUC19 40 nM, compound 9 20 μM, pH 6.85, 37°C, 20 h
Method: The enzyme-catalyzed labeling reaction was carried out in a mixture (100 μl) of M-HhaI (730 nM), pUC19 DNA (40 nM, 17 recognition sites for M•HhaI), compound 9 (20 μM), Tris chloride (10 mM, pH 6.85), sodium chloride (50 mM), EDTA (0,5 mM) and P-mercaptoethanol (2 mM) at 37° C. A parallel control experiment was performed without M•HhaI. Aliquots of both incubations after 20 h reaction time were analyzed by anion exchange chromatography as described above (see example 2, 3.1). The obtained chromatograms are shown in FIG. 8 (A: UV detection at 260 nm; B: fluorescence detection).

SMILES	M•TaqI-catalyzed coupling of the cofactor with DNA ([1]; compound 2 1 mM)	M•HhaI-catalyzed coupling of the cofactor to duplex oligodeoxynucleotide 6•7 [2]	coupling reaction of the fluorescent cofactor with DNA catalyzed by M•TaqI ([1]; compound 9 20 μM)	time to complete conversion of duplex 3•4 to new product (containing DNA and protein) ([1]; compound 9 20 μM)	fluorescence signal of pUC19 in anion exchange chromatography after labeling with M•TaqI ([3]; 65°C, different incubation times)	time to completion of the labeling reaction yielding fluorescent pUC19 ([3]; pH 6.0, 65°C)	cofactor function in M•HhaI-catalyzed fluorescent labeling of pUC19 [4]
Nc1ncnc2c1ncn2[C@@H]1O[C@H](CN2CC2)[C@@H](O)[C@H]1O [Compound 2, N-Adenosylaziridine]	quantitative, sequence- and base-specific	quantitative	–	–	–	–	–
CN(C)c1cccc2c(S(=O)(=O)NCCCCNc3nc4c(N)ncnc4n3[C@@H]3O[C@H](CN4CC4)C(O)[C@@H]3O)cccc12 (stereo partly shown) [Compound 9, 8-Amino[1″-(N″-dansyl)-4″-aminobutyl]-5′-(1-aziridinyl)-5′-deoxy adenosine]	–	–	quantitative and base-specific	15 h	increase of the fluorescence signal with the incubation time	8 h	function as a cofactor for M•HhaI
